In this test the test system is MDA175-VII (NRG1-DOC4 fusion) cells. Put plainly: Cell viability of MDA175-VII (NRG1-DOC4 fusion) cells, Cell Titer Glo assay. It counts as cell-based. Particulars: 72 hours. The method, then:
FIG. 1A. Representative dose response curves of MDA175-VII (NRG1-DOC4 fusion) treated with the indicated IACS novel quinazoline-based TKIs for 72 hours. Cell viability was determined by Cell Titer Glo Assay.
FIG. 3A. Representative dose response curves of MDA175-VII (NRG1-DOC4 fusion) treated with the indicated anti-HER2 therapy with or without low dose treatment of IACS inhibitors for 72 hours. Cell viability was determined by Cell Titer Glo Assay.
Cell viability was determined by the Cell Titer Glo assay.
For orientation: Cellular ATP, detected with luciferase, serves as a proxy for viable cell number.

Where [1] appears, read: MDA175-VII (NRG1-DOC4 fusion) cells treated with IACS inhibitors.
The mark [2] stands for this setting: MDA175-VII (NRG1-DOC4 fusion) cells treated with anti-HER2 antibodies with or without low dose IACS inhibitors.

As usually defined, the IC50 is the concentration that inhibits the measured activity by half. Higher therefore signals a need for much substance. `C=CC(=O)N1CC(Oc2cc3c(Nc4ccc(Cl)c(Cl)c4)ncnc3cc2OC)C1` [IACS-015285] came in with an IC50 under setting [1] of 0.268 nM.

Under setting [1], `C=CC(=O)N1CC(Oc2cc3c(Nc4ccc(Cl)c(Cl)c4F)ncnc3cc2OC)C1` [IACS-015293] had an IC50 of 0.16 nM.

Compound `C=CC(=O)N1CC(Oc2ccc3ncnc(Nc4ccc(Cl)c(Cl)c4)c3n2)C1` [IACS-052336] had an IC50 under setting [1] of 26.8 nM.

As to `C=CC(=O)N1CCC(Oc2cc3c(Nc4ccc(Cl)c(Cl)c4F)c(C#N)cnc3cc2OC)CC1` [IACS-070709], half-maximal inhibition under setting [1] (IC50) required 1.29 nM.

The compound `C=CC(=O)N1CC(Oc2cc3c(Nc4ccc(Cl)cc4Cl)ncnc3cc2OC)C1` [IACS-070863] came in with an IC50 under setting [1] of 10.5 nM.

Under setting [1], `C=CC(=O)N1CC(Oc2cc3c(Nc4ccc(Br)c(Cl)c4)ncnc3cc2OC)C1` [IACS-070864] returned an IC50 of 0.979 nM.

Compound `C=CC(=O)N1CC(Oc2cc3c(Nc4ccccc4)ncnc3cc2OC)C1` [IACS-070871] registered an IC50 under setting [1] of 1.08 nM.

Under setting [1], `C=CC(=O)N1CCC(Oc2cc3c(Nc4ccc(Cl)c(Cl)c4F)ncnc3cc2OC)C1` (centres unmarked) [IACS-070968] came in with an IC50 of 3.12 nM.

Under setting [1], `C=CC(=O)N1CCC(Oc2cc3c(Nc4ccc(Cl)c(Cl)c4)ncnc3cc2OC)CC1` [IACS-070979] had an IC50 of 0.157 nM.

In turn, `C=CC(=O)N1CCC(Oc2cc3c(Nc4ccc(Cl)cc4Cl)ncnc3cc2OC)CC1` [IACS-070980] yielded an IC50 under setting [1] of 4.46 nM.

Under setting [1], `C=CC(=O)N1CCC(Oc2cc3c(Nc4ccc(Br)c(Cl)c4)ncnc3cc2OC)CC1` [IACS-070982] yielded an IC50 of 0.296 nM.

Compound `C=CC(=O)N1CCC(Oc2cc3c(Nc4ccccc4)ncnc3cc2OC)CC1` [IACS-070989] came in with an IC50 under setting [1] of 1.03 nM.

“Pertuzumab: recombinant, humanized monoclonal antibody that inhibits dimerization of HER2 [reference compound]” registered an IC50 under setting [2] of 58.2 nM.

As to T-DM1 [reference compound], the IC50 under setting [2] came to 652 nM.
